Experimental data: patent US7550471B2, “5-alkyl-7-aminotriazolopyrimidines, methods and intermediary product necessary for the production thereof, agents containing said compounds and the use thereof for fighting against harmful mushrooms” (BASF Aktiengesellschaft, priority 2002, dated 2009)

Tested on: Alternaria solani
Experiment: Activity against early blight of tomato caused by Alternaria solani
Format: in vivo
Conditions: 250 ppm active compound, tomato plants sprayed one day before infection, assessed after 5 days; untreated plants 90% infected
Procedure: The active compounds were formulated separately as a stock solution comprising 0.25% by weight of active compound in acetone or DMSO. 1% by weight of the emulsifier Uniperol® EL (wetting agent having emulsifying and dispersing action based on ethoxylated alkylphenols) was added to this solution. The stock solutions of the active compounds were diluted with water to the stated concentration. Leafs of potted plants of the cultivar “Groβe Fleischtomate St. Pierre” were sprayed to run off point with an aqueous suspension having the concentration of active compound stated below. The next day, the leaves were infected with an aqueous spore suspension of Alternaria solani in a 2% strength biomalt solution of a density of 0.17×10^6 spores/ml. The plants were then placed in a water-vapor-saturated chamber at 20-22° C. After 5 days, the early blight on the untreated but infected control plants had developed to such an extent that the infection could be determined visually in %.

Cc1nc2ncnn2c(N2CCC(C)CC2)c1C1CCCC1 [Compound I-1, 5-methyl-6-cyclopentyl-7-(4-methyl-piperidin-1-yl)-[1,2,4]triazolo[1,5-a]pyrimidine]
infection (early blight, determined visually in %): no infection
